Results: PubChem BioAssay (NCI)
Several values for one entry are separate records, joined by “and”; a condition that tells them apart may be missing. Equal entries are not always repeated.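 Results reflect a 48-hour exposure of cells in 96-well plates to compound at five concentrations. Abbreviation: GI50, concentration required for 50% inhibition of growth. The concentration for full growth arrest is given as TGI.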

Experiments:
Experiment in all cases: DTP human tumour cell line panel, 48 h
786-0 renal = test system: 786-0 renal
HCC-2998 colon = test system: HCC-2998 colon
HCT-116 colon = test system: HCT-116 colon
HT29 colon = test system: HT29 colon
MDA-MB-231 breast = test system: MDA-MB-231 breast
NCI-H522 lung = test system: NCI-H522 lung
OVCAR-8 ovarian = test system: OVCAR-8 ovarian
RXF 393 renal = test system: RXF 393 renal
SF-295 CNS = test system: SF-295 CNS
U251 CNS = test system: U251 CNS

SMILES | GI50 (786-0 renal) [µM] | TGI (786-0 renal) [µM] | GI50 (HCC-2998 colon) [µM] | TGI (HCC-2998 colon) [µM] | GI50 (HCT-116 colon) [µM] | TGI (HCT-116 colon) [µM] | GI50 (HT29 colon) | TGI (HT29 colon) [µM] | GI50 (MDA-MB-231 breast) [µM] | TGI (MDA-MB-231 breast) [µM] | GI50 (NCI-H522 lung) [µM] | TGI (NCI-H522 lung) [µM] | GI50 (OVCAR-8 ovarian) [µM] | TGI (OVCAR-8 ovarian) [µM] | GI50 (RXF 393 renal) [µM] | TGI (RXF 393 renal) [µM] | GI50 (SF-295 CNS) [µM] | TGI (SF-295 CNS) [µM] | GI50 (U251 CNS) [µM] | TGI (U251 CNS) [µM]
CN1CCN(Cc2ccc(NC(=O)c3cncc(C#Cc4cncc5[nH]ncc45)c3)cc2C(F)(F)F)CC1 | 1.8 | 6.35 | 0.777 | 5.88 | 0.215 | 2.34 | 0.251 µM | 6.24 | 0.23 | 1.04 | 1.16 | 8 | 1.5 | 6.73 | 0.665 | 1.95 | 1.73 | 7.4 | 1.53 | 7.76
N#CSc1cc(-c2nc3ccccc3o2)ccc1N | 33.4 | 97.4 | 22.6 | > 100 | 26.5 | > 100 | 37.7 µM | > 100 | > 100 | > 100 | > 40.9 | > 64.6 | 2.79 | > 32.5 | 0.965 | 26.3 | 17.1 | > 74.1 | 11.8 | 57.3
C=C1C(=O)O[C@H]2[C@H]1CC/C(COC(=O)c1ccc(Br)cc1)=C\CC[C@@]1(C)O[C@@H]21 | 1.62 | 3.09 | 2.05 | 4.27 | 0.415 | 1.58 | 1.13 µM | 3.43 | 1.73 | 3.51 | 1.33 | 2.8 | 1.87 | 5 | 1.46 | 2.84 | 1.67 | 3.57 | 1.55 | 2.98
CCCCOc1nc2ccccc2cc1C1CNC(=O)c2ccccc2N1 (configuration not stated) | 3.14 | 11.1 | 3.68 | 21.5 | 1.92 | 5.47 | 3.3 µM | 10.6 | 4.78 | 26 | 2.75 | 21.2 | 3.64 | 15.7 | 2.25 | 10.2 | 1.63 | 8.49 | 3.35 | 14.2
COc1ccc(C2C3=C(COC3=O)N(CCO)c3cc4c(cc32)CCC4)cc1OC (configuration not stated) | 5.56 | > 50 | 0.945 | > 16.3 | 0.524 | > 50 | 0.62 µM | > 10.3 | 2.52 | > 50 | 0.514 | – | 1.74 | > 50 | 0.207 | – | 0.171 | 1.31 | 1.15 | > 50
O=C(c1nc2ccccc2[nH]1)C1C(c2cccc([N+](=O)[O-])c2)C2CC3CCCCC3N2[C@@]12C(=O)Nc1cc(Cl)ccc12 (some centres not stated) | 1.89 | 4.52 | 1.88 | 3.83 | – | – | 1.64 µM | 4.35 | 1.49 | 3.17 | 1.67 | 4.38 | 2.68 | 20.1 | 1.36 | 2.81 | 1.56 | 3.58 | – | –
NC(=S)c1cn(C2OC(CO)C(O)C2O)c2ncnc(N)c12 (configuration not stated) | 0.356 | – | 0.208 | 0.998 | 0.0876 | > 33.9 | 0.181 µM | 3.96 | 0.152 | > 100 | 0.168 | 0.554 | 0.209 | – | 0.307 | > 100 | 0.287 | 3.07 | 0.292 | 8.71
CCn1c(-c2nonc2N)nc2c(C#CC(C)(C)O)ncc(OCC3CCNCC3)c21 | 6.11 | 24.6 | 11.4 | > 25 | 6.67 | > 20.9 | 10.4 µM | > 25 | > 25 | > 25 | 9.07 | > 25 | 9.68 | > 25 | 2.54 | 7.28 | 5.29 | > 25 | 3.99 | > 25
O=C(Nc1ccc(Oc2cccc(Cl)c2)c(Cl)c1)c1cccnc1 | 2.69 | 11.6 | 5.62 | 15.7 | 2.11 | > 50 | 0.823 µM | 6.42 | 6.25 | 46 | 0.968 | 5.89 | 2.85 | 33.9 | 0.927 | 4.65 | 1.33 | 16 | 2.23 | 18
O=C(N/N=C\c1cc(Br)cc(Br)c1O)N/N=C/c1cc(Br)cc(Br)c1O | 10.1 | 23.1 | 13.4 | 32.5 | 5.96 | 22.3 | 5.93 µM | 18.3 | 4.18 | 17.5 | 3.08 | 13.8 | 2.88 | 16.7 | 3.57 | 27.3 | 2.48 | 15.7 | 2.14 | 15.7
COC(=O)CCCCCCCCC(=O)c1c(C)[nH]c(/C=C2\N=C(c3ccc[nH]3)C=C2OC)c1C | 8.53 | > 43.4 | > 26.9 | > 100 | 8.09 | > 56 | 32.4 µM | > 100 | 7.83 | > 100 | 8.55 | > 69.9 | 14.4 | > 59.9 | 31.3 | > 100 | > 58.8 | > 100 | 10.9 | > 100
COc1ccc2c(c1)/C(=N/OC(C)=O)c1c-2c(Nc2ccc(/C(C)=N/OC(C)=O)cc2)nc2ccccc12 | > 100 | > 100 | 26 | 59 | 35 | > 100 | > 100 µM | > 100 | > 100 | > 100 | 73.4 | > 100 | 63.3 | > 100 | > 100 | > 100 | > 100 | > 100 | 96.8 | > 100
O=[N+]([O-])C1(CO)COC2(OC1)c1ccccc1-c1ccccc12 | – | > 74.8 | – | > 100 | – | 88.7 | – | > 100 | – | > 100 | – | 41 | – | > 100 | – | > 69.1 | – | > 100 | – | > 100
CN(C)CC1CCCCCCCCCCC1=O (configuration not stated) | > 100 | > 100 | – | > 10 | > 100 | > 100 | > 10 µM and 98.4 µM | > 100 | – | > 10 | > 100 | > 100 | – | > 10 | – | > 10 | – | > 10 | > 100 | > 100
Fc1ccc(-c2ncn(C3CCNCC3)c2-c2ccnc(Oc3ccc(Oc4ccccc4)cc3)n2)cc1 | 4.03 | 7.75 | 3.15 | 6.69 | 3.47 | 6.76 | 2.13 µM | 5.23 | 3.71 | 7.17 | 4.67 | 8.7 | 4.2 | 8.4 | 2.78 | 6.1 | 4.52 | 8.84 | 3.56 | 7.18
Nc1cc2ccncc2c2ccccc12 | 23.3 | > 100 | 14.2 | 40.4 | 4.85 | > 100 | 13.2 µM | 43 | 16.4 | 96.1 | 5.49 | 26.6 | 5.25 | > 100 | 10.8 | 29 | 10.8 | 57.4 | 21 | > 100
Cn1ccnc1C(=O)/C=C/c1ccc(CC(=O)Nc2cc(F)c(F)c(F)c2)cc1 | 2.44 | 5.5 | 2.55 | 6.04 | 1.22 | 4.42 | 0.861 µM | 12.7 | 4.04 | > 25 | 2.64 | 7.72 | 1.33 | > 25 | 0.941 | 4.11 | 6.63 | > 25 | 0.837 | 3.2
BrCC[N+]12CCCN1CCC2 | – | 22.3 | – | 54.3 | – | 22.8 | – | 38.2 | – | 34 | – | 1.71 | – | 39.3 | – | 29.2 | – | > 100 | – | 32.7
CO[C@H]1/C=C/C=C/C=C/C[C@H](OC(=O)[C@@H](C)NC(=O)C2CCCCC2)[C@H](C)[C@@H](O)/C(C)=C\CCC2=CC(=O)C=C(NC(=O)C1)C2=O | 0.177 | 1.32 | 0.109 | 0.762 | 0.0472 | 0.738 | 0.0801 µM | 0.513 | 0.137 | 0.934 | 0.104 | 0.823 | 0.194 | 1.57 | 0.0945 | 0.346 | 0.124 | 0.966 | 0.0985 | 0.953
Nc1ccc(Sc2ccc3c4c2cccc4c(=O)n2c4ccccc4nc32)cc1 | 3.34 | 10.4 | 10.1 | > 100 | 5.05 | 26.7 | 8.55 µM | 73.2 | 5.31 | 30 | 3.99 | 36.8 | 5.13 | 30.9 | 6.9 | 34.5 | 2.38 | 8.01 | 4.13 | 20.6
C=C(C)[C@@H]1CC[C@@H]2C(=CC[C@]3(C)C([C@H](C)CC/C=C(/C)C(=O)O)CC[C@@]23C)[C@@]1(C)CCC(=O)O (some centres not stated) | – | 43.9 | – | 35.1 | – | 43.7 | – | 48.4 | – | 60.2 | – | 91.6 | – | > 100 | – | 35.1 | – | > 100 | – | 70
COc1cc(C2CC(c3cc(Cl)c(C)cc3O)=NN2c2ccc(S(N)(=O)=O)cc2)cc(OC)c1OC (configuration not stated) | 2.21 | 4.29 | 1.84 | 3.75 | 1.63 | 2.98 | 1.92 µM | 4.28 | 2.09 | 5.01 | 2.45 | 6.73 | 3.92 | 12.9 | 2.9 | 6.02 | 1.8 | 3.96 | 2.84 | 8.89
CCN(CC)c1ccc(/C=C2/NC(=O)NC2=O)cc1 | 10.9 | > 100 | 16.2 | > 100 | 3.65 | > 100 | 2.83 µM | > 100 | 28.7 | > 100 | 2.18 | 24.8 | 14.7 | > 100 | 4.34 | 17.5 | 4.36 | > 32.7 | 6.05 | > 100
Cc1c(-c2ccnc(N)n2)c2c(n1-c1ccccc1)C(=O)c1ccccc1C2=O | 25.6 | > 100 | 19.7 | 46.5 | 14.3 | > 100 | – | – | 19.7 | 63.3 | 13.2 | 37.2 | 17.2 | > 100 | 22.1 | 56.5 | 14 | 30.7 | 18.9 | 74.9
Clc1cc(-c2csc(Cl)c2)cs1 | – | > 100 | – | – | – | > 100 | – | > 100 | – | > 100 | – | > 100 | – | > 100 | – | > 100 | – | > 100 | – | > 100
N#CCCCCCn1c2ccccc2c2c3c(c4c5ccccc5[nH]c4c21)C(=O)N(O)C3=O | 1.64 | 3.23 | 1.82 | 6.06 | 0.894 | 2.37 | 1.86 µM | 4.66 | 1.78 | 5.32 | 0.164 | 0.411 | – | – | 1.7 | 4.69 | 2.44 | 6.95 | 0.435 | 1.57
